According to ChEMBL document CHEMBL3301361, “Experimental in vitro DMPK and physicochemical data on a set of publicly disclosed compounds”:
Converted amounts (≈) assume the structure as drawn. Structures can show the parent of a compound that is named as a salt.

Experiments:
physchem [1] = conditions: octan-1-ol/water
in vitro [2] = conditions: human, plasma
in vitro [3] = conditions: SD, HW or BN, rat, plasma
in vitro [4] = conditions: hepatocytes
in vitro [5] = conditions: human
physchem [6] = conditions: pH 7.4 buffer

| Compound | logD (physchem [1]; pH 7.4, LogD7.4) | fraction unbound at 5 h (in vitro [2]; PPB) | fraction unbound at 5 h (in vitro [3]) | other results |
| --- | --- | --- | --- | --- |
| N#C[C@@]1(NC(=O)[C@@H](N)Cc2cccs2)C[C@@H]1c1ccccc1 | 1.3 | 0.46 | 0.344 | – |
| C[C@@H]1Cc2c([nH]c3cc(Cl)c(F)cc23)[C@]2(N1)C(=O)Nc1ccc(Cl)cc12 | – | – | – | hepatocyte CLint (in vitro [4]): 7.24 µL/min/1e6 cells |
| Oc1nc2c(O)ccc(CCNCCCSCCOCCc3cccc4ccccc34)c2s1 | – | – | 0.0122 | microsomal CLint (in vitro [5]; liver microsomes): 36 µL/min/mg |
| CC1(C)CNC(=O)c2sc(N3CCOCC3)nc2C1 | 1.29 | 0.701 | 0.517 | solubility thermodynamic (physchem [6]): 251 µM (≈ 70.7 µg/mL) |
| NC(=O)c1cc(C(N)=O)n(-c2cccc(-c3cc(C(F)(F)F)ccc3C(F)(F)F)c2)n1 | 3.4 | 0.0328 | 0.0568 | – |
| CCN(CC)S(=O)(=O)c1ccc(-c2cc(C(F)(F)F)ccc2OCC(=O)O)cc1 | 0.67 | 0.0122 | 0.0179 | – |
| O=C(NCCc1ccccc1)c1cc(-n2ncc(=O)[nH]c2=O)ccc1Cl | 0.74 | 0.0251 | 0.0391 | microsomal CLint (in vitro [5]; liver microsomes): < 3 µL/min/mg |
| COC[C@@H](O)Cn1c(=O)cnn(-c2ccc(Cl)c(C(=O)NCC3(O)CCCCCC3)c2)c1=O | 1.44 | 0.586 | 0.608 | – |
| CC(C)(C)OC(=O)NC[C@H]1CC[C@H](CNC(=O)c2cc(-c3ccccc3)nc3ccccc23)CC1 | – | 0.0008 | 0.005 | – |
| Cc1nn(-c2ccccc2)c(NS(=O)(=O)C2CCCCC2)c1C(=O)N[C@@H](C)C(C)(C)C | 1.75 | 0.0149 | 0.0163 | solubility thermodynamic (physchem [6]): 398 µM (≈ 178 µg/mL) |
| Cc1c(Sc2ccc(Cl)cc2)c2c(-c3cnccn3)cccc2n1CC(=O)O | 0.03 | 0.0124 | 0.024 | microsomal CLint (in vitro [5]; microsomes): 8 µL/min/mg |
| CCn1nc(C)c(C(=O)N[C@@H](C)C(C)(C)C)c1NS(=O)(=O)c1ccc(C)cc1 | 0.95 | 0.0163 | 0.0477 | – |
| Cc1ccc(S(=O)(=O)Nc2c(C(=O)N[C@@H](C)C(C)(C)C)c(C)nn2C2CCC2)cc1 | 1.57 | 0.0183 | 0.0209 | microsomal CLint (in vitro [5]; microsomes): 11 µL/min/mg |
| CN(C(=O)Cc1ccc(-n2cnnn2)cc1)C1CCN(Cc2ccc(C(F)(F)F)cc2)CC1 | – | 0.0872 | 0.0606 | solubility thermodynamic (physchem [6]): 17.8 µM (≈ 8.16 µg/mL) |
| COc1ccccc1CN(C(C)=O)c1cnccc1Oc1ccccc1 | 3 | 0.069 | 0.101 | – |
| COc1cc(C)c(S(=O)(=O)N(C)CCOCC(=O)N2CCC(C3CCN(C)CC3)CC2)c(C)c1 | 0.3 | 0.483 | 0.511 | – |
| COc1ncc(-c2c(C)ccc(F)c2CCNC(=O)c2ccc(OCC(F)(F)F)nc2)cn1 | – | 0.002 | 0.0437 | – |
| O=C(NCc1ccc(OC(F)(F)F)cc1)C1c2ccccc2C(=O)N1C1CCOCC1 (centres undefined) | – | 0.0948 | 0.132 | solubility thermodynamic (physchem [6]): 83.2 µM (≈ 36.1 µg/mL) |
| Cc1nc(C)c(-c2ccc([C@H]3CC[C@H](CC(N)=O)CC3)cc2)nc1C(N)=O | 2.7 | 0.129 | 0.0556 | – |
| C[C@@H]1CN(c2ccc3c(n2)NC(=O)CO3)[C@H](c2ccccc2)CO1 | 2.75 | 0.0633 | 0.0928 | – |
| Cc1ccc(Sc2ccccc2CN(C)C)c(N)c1 | 2.6 | 0.11 | 0.0928 | – |

| Compound | logD (physchem [1]; pH 7.4, LogD7.4) | fraction unbound at 5 h (in vitro [2]; PPB) | fraction unbound at 5 h (in vitro [3]) | other results |
| --- | --- | --- | --- | --- |
| COc1ccccc1O[C@@H](c1ccccc1)[C@@H]1CNCCO1 | 0.9 | 0.309 | 0.768 | – |
| CC(C)N1C(=O)[C@H](NC(=O)[C@@H](Cc2ccccc2OC(F)(F)F)NC(=O)OC(C)(C)C)CCc2ccccc21 | – | 0.003 | 0.003 | solubility thermodynamic (physchem [6]): 5 µM (≈ 2.75 µg/mL) |
| CCN1CCC[C@H]1CNC(=O)c1cc(Br)cc(OC)c1OC | 1.2 | 0.54 | 0.701 | – |
| O=c1c2ccccc2[nH]n1Cc1c[nH]c2ccccc12 | – | – | – | hepatocyte CLint (in vitro [4]): 4.37 µL/min/1e6 cells |
| CN(C)C(=O)[C@H](O)[C@H](Cc1ccccc1)NC(=O)c1cc2cc(Cl)ccc2[nH]1 | 3.6 | 0.0219 | 0.0268 | solubility thermodynamic (physchem [6]): 22.9 µM (≈ 9.16 µg/mL) |
| C[C@H]([C@H](O)c1ccc(O)cc1)N1CCC(O)(c2ccccc2)CC1 | 0.91 | 0.681 | 0.608 | – |
| CC(C)Oc1cc(Nc2nc(N[C@@H](C)c3ccc(F)cn3)nc(OC(CO)CO)c2Cl)n[nH]1 | 2.77 | 0.176 | 0.173 | – |
| Cc1ccccc1CN1CCC(N2CCC(n3c(=O)[nH]c4ccccc43)CC2)CC1 | – | – | 0.299 | logD (physchem [1]; pH 7.4): 2.68; fraction unbound at 5 h (in vitro [2]): 0.355 |
| Cc1cc(Oc2ncc(C(F)(F)F)cc2Cl)ccc1CC1SC(=O)NC1=O (centres undefined) | – | 0.0006 | 0.0021 | – |
| Clc1ccc2c(c1)C(N1CCNCC1)=Nc1ccccc1O2 [AMOXAPINE] | 2.28 | 0.11 | 0.101 | – |
| O=S(=O)(N[C@H](CO)C(C(F)(F)F)C(F)(F)F)c1ccc(Cl)s1 [BEGACESTAT] | – | 0.0909 | 0.11 | – |
| CCCCc1nc(Cl)c(C(=O)O)n1Cc1ccc(-c2ccccc2-c2nn[nH]n2)cc1 [CARBOXYLIC ACID METABOLITE] | – | 0.0049 | 0.0022 | – |
| CN(C)CCC=C1c2ccccc2C=Cc2ccccc21 [CYCLOBENZAPRINE] | 2.83 | 0.0784 | 0.117 | microsomal CLint (in vitro [5]; microsomes): 4.07 µL/min/mg |
| CCOC(=O)Nc1ccc(NCc2ccc(F)cc2)cc1N [EZOGABINE] | – | – | 0.201 | fraction unbound at 5 h (in vitro [2]): 0.139 |
| CC(C(=O)O)c1cccc(Oc2ccccc2)c1 (centres undefined) [FENOPROFEN] | 0.71 | – | 0.0146 | microsomal CLint (in vitro [5]; liver microsomes): 10.2 µL/min/mg |
| OCCN1CCN(CCCN2c3ccccc3Sc3ccc(C(F)(F)F)cc32)CC1 [FLUPHENAZINE] | – | – | 0.0119 | logD (physchem [1]; pH 7.4): 3.8; fraction unbound at 5 h (in vitro [2]): 0.0119 |
| CCOC(=O)Nc1ccc(NCc2ccc(F)cc2)nc1N [FLUPIRTINE] | 2.22 | 0.16 | 0.22 | – |
| COCCCC/C(=N\OCCN)c1ccc(C(F)(F)F)cc1 [FLUVOXAMINE MALEATE] | – | 0.266 | 0.224 | – |
| C[N+](C)(Cc1ccc(NC(=O)c2ccc(Cl)c(Cl)c2)cc1)C1CCOCC1 [JNJ-17166864 CATION] | – | 0.179 | 0.387 | – |
| CNC1(c2ccccc2Cl)CCCCC1=O (centres undefined) [KETAMINE] | – | – | 0.552 | fraction unbound at 5 h (in vitro [2]): 0.58 |
| CC(C)NC[C@H](O)COc1cccc2ccccc12 [LEVOPROPRANOLOL] | – | – | 0.204 | fraction unbound at 5 h (in vitro [2]): 0.139 |

| Compound | logD (physchem [1]; pH 7.4, LogD7.4) | fraction unbound at 5 h (in vitro [2]; PPB) | fraction unbound at 5 h (in vitro [3]) | other results |
| --- | --- | --- | --- | --- |
| Cc1c(F)cc(C(=O)NC2CC2)cc1-c1ccc(C(=O)NCC(C)(C)C)cn1 [LOSMAPIMOD] | – | 0.119 | 0.0818 | – |
| CNCCCC12CCC(c3ccccc31)c1ccccc12 [MAPROTILINE] | 0.89 | 0.126 | 0.0784 | – |
| Cn1cc[nH]c1=S [METHIMAZOLE] | -0.42 | 0.81 | 0.814 | – |
| O=C(O)c1cccnc1 [NIACIN] | – | 0.552 | 0.546 | – |
| Cc1cc2c(s1)Nc1ccccc1N=C2N1CCN(C)CC1 [OLANZAPINE] | – | – | 0.124 | logD (physchem [1]; pH 7.4): 2.19; fraction unbound at 5 h (in vitro [2]): 0.107 |
| Fc1ccc([C@@H]2CCNC[C@H]2COc2ccc3c(c2)OCO3)cc1 [PAROXETINE] | 1.78 | 0.101 | 0.0532 | – |
| O=C1NC(=O)C(c2ccccc2)(c2ccccc2)N1 [PHENYTOIN] | 2.41 | 0.129 | 0.179 | solubility thermodynamic (physchem [6]): 79.4 µM (≈ 20 µg/mL) |
| CNc1ccc(-c2nc3ccc(O)cc3s2)cc1 [PITTSBURGH COMPOUND B UNLABELLED] | – | 0.0111 | 0.0183 | – |
| O=C(O)c1c(O)c(Cc2ccc(Cl)cc2)nc2c3c(ccc12)CCCC3 [PSI-697] | – | 0.0007 | 0.0014 | – |
| CCc1nc(N)nc(N)c1-c1ccc(Cl)cc1 [PYRIMETHAMINE] | 2.31 | 0.0736 | 0.069 | – |
| CCN1CCC[C@H]1CNC(=O)c1c(O)c(Cl)cc(Cl)c1OC [RACLOPRIDE] | – | 0.11 | 0.557 | – |
| COc1ccc(C2CNC(=O)C2)cc1OC1CCCC1 (centres undefined) [ROLIPRAM] | – | 0.173 | 0.329 | – |
| CN(C)CCOc1cc(NS(=O)(=O)c2c(Cl)cc(C(F)(F)F)cc2Cl)ccc1Cl [SB611812] | 2.99 | 0.0029 | 0.0024 | – |
| CN1CCc2cc(Cl)c(O)cc2[C@@H](c2ccccc2)C1 [SCH-23390] | 2.5 | 0.0801 | 0.17 | – |
| CN[C@H]1CC[C@@H](c2ccc(Cl)c(Cl)c2)c2ccccc21 [SERTRALINE] | 3.15 | 0.0146 | 0.02 | – |
| Cc1ccsc1C(=CCCN1CCC[C@@H](C(=O)O)C1)c1sccc1C [TIAGABINE] | 1.49 | 0.051 | 0.0836 | – |
| O=c1n(CCCN2CCN(c3cccc(Cl)c3)CC2)nc2ccccn12 [TRAZODONE] | 2.67 | – | 0.124 | solubility thermodynamic (physchem [6]): 891 µM (≈ 331 µg/mL); fraction unbound at 5 h (in vitro [2]): 0.03 |
| O=C(CC(c1ccccc1)c1ccccc1)N1CCN(C(c2ccccc2)c2ccccc2)CC1 [Z160] | – | 0.001 | 0.5 | – |
| O=C1Cc2cc(CCN3CCN(c4nsc5ccccc45)CC3)c(Cl)cc2N1 [ZIPRASIDONE] | – | 0.001 | 0.003 | – |
